“And” between values parts separate entries of the source, which are not always exact repeats. Identical values can stand only once. Toxic doses and inconclusive results are not listed.
Test system: L1210 leukemia ip in BDF1 mice, survival T/C
Assay: NCI In Vivo Anticancer Drug Screen. Data for tumor model L1210 Leukemia (intraperitoneal) in B6D2F1 (BDF1) mice
Details: higher = longer survival
Procedure, shortened: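 Antitumor effect is assessed in tumor-bearing animals. Survival in the compound arm is compared with a vehicle-dosed control arm and expressed as their quotient.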

[1] = endpoint: mean survival time, dose: 10.0 mg/kg/injection, schedule: Q04DX003 (ip), vehicle: saline
[2] = endpoint: mean survival time, dose: 20.0 mg/kg/injection, schedule: Q04DX003 (ip), vehicle: saline

For `Nc1nc(=S)c2ncn(C3CC(O)C(CO)O3)c2[nH]1` (stereo not drawn), the T/C (endpoint: mean survival time, dose: 0.15 mg/kg/injection, schedule: Q01DX015 (ip), vehicle: carboxymethylcellulose (CMC)) was 121 % of control, the T/C (endpoint: mean survival time, dose: 0.31 mg/kg/injection, schedule: Q01DX009 (ip), vehicle: saline) was 119 % of control and the T/C (endpoint: mean survival time, dose: 0.32 mg/kg/injection, schedule: Q01DX015 (ip), vehicle: carboxymethylcellulose (CMC)) was 124 % of control. The T/C (endpoint: mean survival time, dose: 0.62 mg/kg/injection, schedule: Q01DX005 (ip), vehicle: clinical formulation) was 153 % of control, the T/C (endpoint: mean survival time, dose: 0.62 mg/kg/injection, schedule: Q01DX009 (ip), vehicle: saline) was 150 % of control and the T/C (endpoint: mean survival time, dose: 0.62 mg/kg/injection, schedule: Q01DX015 (ip), vehicle: carboxymethylcellulose (CMC)) was 151 % of control. The T/C (endpoint: mean survival time, dose: 0.63 mg/kg/injection, schedule: Q03HX008 (ip), vehicle: saline) was 162 % of control, the T/C (endpoint: mean survival time, dose: 0.63 mg/kg/injection, schedule: Q03HX024 (ip), vehicle: saline) was 167 % of control and the T/C (endpoint: mean survival time, dose: 0.9 mg/kg/injection, schedule: Q01DX009 (ip), vehicle: saline with Tween-80) was 150 % of control. The T/C (endpoint: mean survival time, dose: 1.25 mg/kg/injection, schedule: Q01DX005 (ip), vehicle: clinical formulation) was 150 % of control and 171 % of control, the T/C (endpoint: mean survival time, dose: 1.25 mg/kg/injection, schedule: Q01DX005 (ip), vehicle: saline) was 154 % of control and the T/C (endpoint: mean survival time, dose: 1.25 mg/kg/injection, schedule: Q01DX005 (ip), vehicle: water) was 163 % of control. For the same compound, the T/C (endpoint: mean survival time, dose: 1.25 mg/kg/injection, schedule: Q01DX009 (ip), vehicle: saline) was 156 % of control, the T/C (endpoint: mean survival time, dose: 1.25 mg/kg/injection, schedule: Q01DX015 (ip), vehicle: carboxymethylcellulose (CMC)) was 180 % of control and 218 % of control and the T/C (endpoint: mean survival time, dose: 1.25 mg/kg/injection, schedule: Q03HX008 (ip), vehicle: saline) was 155 % of control. For the same compound, the T/C (endpoint: mean survival time, dose: 1.25 mg/kg/injection, schedule: Q03HX016 (ip), vehicle: saline) was 163 % of control, the T/C (endpoint: mean survival time, dose: 1.25 mg/kg/injection, schedule: Q03HX024 (ip), vehicle: saline) was 157 % of control and the T/C (endpoint: mean survival time, dose: 1.56 mg/kg/injection, schedule: Q01DX009 (ip), vehicle: saline) was 161 % of control and 173 % of control. The T/C (endpoint: mean survival time, dose: 1.87 mg/kg/injection, schedule: Q01DX015 (ip), vehicle: carboxymethylcellulose (CMC)) was 113 % of control, the T/C (endpoint: mean survival time, dose: 2.5 mg/kg/injection, schedule: Q01DX001 (ip), vehicle: saline) was 120 % of control and the T/C (endpoint: mean survival time, dose: 2.5 mg/kg/injection, schedule: Q01DX002 (ip), vehicle: Klucel (hydroxypropylcellulose) (HPC)) was 177 % of control. For the same compound, the T/C (endpoint: mean survival time, dose: 2.5 mg/kg/injection, schedule: Q01DX005 (ip), vehicle: clinical formulation) was 173 % of control and 178 % of control, the T/C (endpoint: mean survival time, dose: 2.5 mg/kg/injection, schedule: Q01DX005 (ip), vehicle: saline) was 171 % of control and the T/C (endpoint: mean survival time, dose: 2.5 mg/kg/injection, schedule: Q01DX005 (ip), vehicle: water) was 173 % of control. The T/C (endpoint: mean survival time, dose: 2.5 mg/kg/injection, schedule: Q01DX009 (ip), vehicle: saline) was 161 % of control, the T/C (endpoint: mean survival time, dose: 2.5 mg/kg/injection, schedule: Q01DX015 (ip), vehicle: carboxymethylcellulose (CMC)) was 155 % of control and 187 % of control and the T/C (endpoint: mean survival time, dose: 2.5 mg/kg/injection, schedule: Q03HX008 (ip), vehicle: saline) was 156 % of control. For the same compound, the T/C (endpoint: mean survival time, dose: 2.5 mg/kg/injection, schedule: Q03HX016 (ip), vehicle: saline) was 167 % of control, the T/C (endpoint: mean survival time, dose: 2.5 mg/kg/injection, schedule: Q04DX003 (ip), vehicle: saline) was 155 % of control and the T/C (endpoint: mean survival time, dose: 2.5 mg/kg/injection, schedule: Q08DX002 (ip), vehicle: saline) was 124 % of control. For the same compound, the T/C (endpoint: mean survival time, dose: 3.12 mg/kg/injection, schedule: Q01DX009 (ip), vehicle: saline) was 191 % of control and 206 % of control, the T/C (endpoint: mean survival time, dose: 4.5 mg/kg/injection, schedule: Q01DX009 (ip), vehicle: saline with Tween-80) was 208 % of control and the T/C (endpoint: mean survival time, dose: 5.0 mg/kg/injection, schedule: Q01DX005 (ip), vehicle: clinical formulation) was 166 % of control and 202 % of control. For the same compound, the T/C (endpoint: mean survival time, dose: 5.0 mg/kg/injection, schedule: Q01DX005 (ip), vehicle: saline) was 158 % of control, the T/C (endpoint: mean survival time, dose: 5.0 mg/kg/injection, schedule: Q01DX005 (ip), vehicle: water) was 192 % of control and the T/C (endpoint: mean survival time, dose: 5.0 mg/kg/injection, schedule: Q01DX009 (ip), vehicle: saline) was 156 % of control. The T/C (endpoint: mean survival time, dose: 5.0 mg/kg/injection, schedule: Q01DX015 (ip), vehicle: carboxymethylcellulose (CMC)) was 166 % of control, the T/C (endpoint: mean survival time, dose: 5.0 mg/kg/injection, schedule: Q03HX024 (ip), vehicle: saline) was 97 % of control and the T/C (endpoint: mean survival time, dose: 5.0 mg/kg/injection, schedule: Q04DX003 (ip), vehicle: saline) was 152 % of control. The T/C (endpoint: mean survival time, dose: 6.0 mg/kg/injection, schedule: Q01DX005 (oral), vehicle: saline) was 108 % of control, the T/C (endpoint: mean survival time, dose: 6.25 mg/kg/injection, schedule: Q01DX009 (ip), vehicle: saline) was 153 % of control and the T/C (endpoint: mean survival time, dose: 7.0 mg/kg/injection, schedule: Q01DX015 (ip), vehicle: carboxymethylcellulose (CMC)) was 150 % of control. For the same compound, the T/C (endpoint: mean survival time, dose: 7.5 mg/kg/injection, schedule: Q01DX015 (ip), vehicle: carboxymethylcellulose (CMC)) was 151 % of control, the T/C (endpoint: mean survival time, dose: 10.0 mg/kg/injection, schedule: Q01DX005 (ip), vehicle: clinical formulation) was 154 % of control and 198 % of control and the T/C (endpoint: mean survival time, dose: 10.0 mg/kg/injection, schedule: Q01DX005 (ip), vehicle: saline) was 219 % of control. The T/C (endpoint: mean survival time, dose: 10.0 mg/kg/injection, schedule: Q01DX005 (ip), vehicle: water) was 156 % of control, the T/C (endpoint: mean survival time, dose: 10.0 mg/kg/injection, schedule: Q01DX009 (ip), vehicle: saline) was 95 % of control and the T/C (endpoint: mean survival time, dose: 10.0 mg/kg/injection, schedule: Q01DX015 (ip), vehicle: carboxymethylcellulose (CMC)) was 114 % of control. The T/C (endpoint: mean survival time, dose: 10.0 mg/kg/injection, schedule: Q03HX008 (ip), vehicle: saline) was 86 % of control, the T/C (endpoint: mean survival time, dose: 10.0 mg/kg/injection, schedule: Q04DX003 (ip), vehicle: Klucel (hydroxypropylcellulose) (HPC)) was 156 % of control and the T/C [1] was 170 % of control. The T/C (endpoint: mean survival time, dose: 10.0 mg/kg/injection, schedule: Q08DX002 (ip), vehicle: saline) was 154 % of control, the T/C (endpoint: mean survival time, dose: 12.0 mg/kg/injection, schedule: Q01DX005 (oral), vehicle: saline) was 116 % of control and the T/C (endpoint: mean survival time, dose: 15.0 mg/kg/injection, schedule: Q01DX015 (ip), vehicle: carboxymethylcellulose (CMC)) was 106 % of control and 155 % of control and 236 % of control. For the same compound, the T/C (endpoint: mean survival time, dose: 20.0 mg/kg/injection, schedule: Q01DX002 (ip), vehicle: Klucel (hydroxypropylcellulose) (HPC)) was 115 % of control, the T/C (endpoint: mean survival time, dose: 20.0 mg/kg/injection, schedule: Q01DX005 (ip), vehicle: saline) was 97 % of control and the T/C [2] was 190 % of control. For the same compound, the T/C (endpoint: mean survival time, dose: 20.0 mg/kg/injection, schedule: Q08DX002 (ip), vehicle: saline) was 157 % of control, the T/C (endpoint: mean survival time, dose: 25.0 mg/kg/injection, schedule: Q01DX009 (ip), vehicle: saline) was 94 % of control and the T/C (endpoint: mean survival time, dose: 40.0 mg/kg/injection, schedule: Q04DX003 (ip), vehicle: Klucel (hydroxypropylcellulose) (HPC)) was 150 % of control. The T/C (endpoint: mean survival time, dose: 40.0 mg/kg/injection, schedule: Q08DX002 (ip), vehicle: saline) was 168 % of control, the T/C (endpoint: mean survival time, dose: 50.0 mg/kg/injection, schedule: Q01DX005 (ip), vehicle: saline) was 90 % of control and the T/C (endpoint: mean survival time, dose: 50.0 mg/kg/injection, schedule: Q01DX009 (ip), vehicle: saline) was 86 % of control. For the same compound, the T/C (endpoint: mean survival time, dose: 60.0 mg/kg/injection, schedule: Q04DX003 (oral), vehicle: saline) was 120 % of control, the T/C (endpoint: mean survival time, dose: 80.0 mg/kg/injection, schedule: Q08DX002 (ip), vehicle: saline) was 153 % of control and the T/C (endpoint: mean survival time, dose: 96.0 mg/kg/injection, schedule: Q01DX005 (oral), vehicle: saline) was 91 % of control. The T/C (endpoint: mean survival time, dose: 100.0 mg/kg/injection, schedule: Q01DX005 (ip), vehicle: saline) was 155 % of control, the T/C (endpoint: mean survival time, dose: 120.0 mg/kg/injection, schedule: Q04DX003 (oral), vehicle: saline) was 113 % of control and the T/C (endpoint: mean survival time, dose: 125.0 mg/kg/injection, schedule: Q01DX015 (ip), vehicle: carboxymethylcellulose (CMC)) was 114 % of control. The T/C (endpoint: mean survival time, dose: 145.0 mg/kg/injection, schedule: Q01DX001 (ip), vehicle: saline with Tween-80) was 160 % of control, the T/C (endpoint: mean survival time, dose: 240.0 mg/kg/injection, schedule: Q04DX003 (oral), vehicle: saline) was 119 % of control and the T/C (endpoint: mean survival time, dose: 250.0 mg/kg/injection, schedule: Q01DX015 (ip), vehicle: carboxymethylcellulose (CMC)) was 96 % of control. For the same compound, the T/C (endpoint: mean survival time, dose: 480.0 mg/kg/injection, schedule: Q04DX003 (oral), vehicle: saline) was 96 % of control, the T/C (endpoint: mean survival time, dose: 960.0 mg/kg/injection, schedule: Q08DX002 (oral), vehicle: saline) was 100 % of control and the T/C (endpoint: median survival time, dose: 0.06 mg/kg/injection, schedule: Q03HX024 (ip), vehicle: saline) was 112 % of control. The T/C (endpoint: median survival time, dose: 0.07 mg/kg/injection, schedule: Q03HX024 (ip), vehicle: saline) was 112 % of control, the T/C (endpoint: median survival time, dose: 0.12 mg/kg/injection, schedule: Q03HX024 (ip), vehicle: saline) was 121 % of control and the T/C (endpoint: median survival time, dose: 0.13 mg/kg/injection, schedule: Q03HX024 (ip), vehicle: saline) was 121 % of control. The T/C (endpoint: median survival time, dose: 0.5 mg/kg/injection, schedule: Q03HX024 (ip), vehicle: saline) was 101 % of control, the T/C (endpoint: median survival time, dose: 1.0 mg/kg/injection, schedule: Q03HX024 (ip), vehicle: saline) was 104 % of control and the T/C (endpoint: median survival time, dose: 32.0 mg/kg/injection, schedule: Q03HX024 (ip), vehicle: saline) was 153 % of control.
With `O=S(=O)(F)c1cc(Cl)ccc1C[P+](c1ccccc1)(c1ccccc1)c1ccccc1` the T/C [1] was 97 % of control and the T/C [2] was 89 % of control.

Source: PubChem BioAssay AID248 (DTP/NCI, 2004)
